ChEMBL document CHEMBL5120932, “Discovery and Optimization of Seven-Membered Lactam-Based Compounds to Phenocopy the Inhibition of the Aurora Kinase B” (ACS Med Chem Lett, 2022)
Activity calls are given as the source filed them. The calls are words filed in the database; no cut-off is given here.

Legend:
[1] = tested on: NCI-H23; experiment: Cytotoxicity against human NCI-H23 cells assessed as reduction in cell viability measured after 6 days by MTT assay; format: functional, cell-based; settings: time 6.0 day
[2] = tested on: NCI-H460; experiment: Cytotoxicity against human NCI-H460 cells assessed as reduction in cell viability measured after 6 days by MTT assay; format: functional, cell-based; settings: time 6.0 day
[3] = tested on: NCI-H596; experiment: Cytotoxicity against human NCI-H596 cells assessed as reduction in cell viability measured after 6 days by MTT assay; format: functional, cell-based; settings: time 6.0 day
[4] = tested on: Calu-6; experiment: Cytotoxicity against human Calu-6 cells assessed as reduction in cell viability measured after 6 days by MTT assay; format: functional, cell-based; settings: time 6.0 day
[5] = tested on: A549; experiment: Cytotoxicity against human A549 cells assessed as reduction in cell viability measured after 6 days by MTT assay; format: functional, cell-based; settings: time 6.0 day
[6] = tested on: HCT-116; experiment: Cytotoxicity against human HCT-116 cells assessed as reduction in cell viability measured after 6 days by MTT assay; format: functional, cell-based; settings: time 6.0 day
[7] = tested on: MDA-MB-231; experiment: Cytotoxicity against human MDA-MB-231 cells assessed as reduction in cell viability measured after 6 days by MTT assay; format: functional, cell-based; settings: time 6.0 day
[8] = tested on: NCI-N87; experiment: Cytotoxicity against human NCI-N87 cells assessed as reduction in cell viability measured after 6 days by MTT assay; format: functional, cell-based; settings: time 6.0 day
[9] = tested on: DU-145; experiment: Cytotoxicity against human DU-145 cells assessed as reduction in cell viability measured after 6 days by MTT assay; format: functional, cell-based; settings: time 6.0 day
[10] = Induction of mitotic arrest in human RPE cells over expressing H2B-GFP-fused MYC assessed as increase in polyploidy at 40 uM measured after 24 to 72 hrs by fluorescence microscopy; format: functional; settings: time 24-72 hrs
[11] = Induction of mitotic arrest in human RPE cells over expressing H2B-GFP-fused MYC assessed as minimum effective concentration for polyploidy measured after 24 to 72 hrs by fluorescence microscopy; format: functional; settings: time 24-72 hrs, read-out: MEC
[12] = tested on: NCI-H23; experiment: Cytotoxicity against human NCI-H23 cells assessed as reduction in cell proliferation at 10 uM measured after 3 days by MTT assay; format: functional, cell-based; settings: time 3.0 day
[13] = tested on: HCT-116; experiment: Cytotoxicity against human HCT-116 cells assessed as reduction in cell proliferation at 10 uM measured after 3 days by MTT assay; format: functional, cell-based; settings: time 3.0 day
[14] = tested on: MDA-MB-231; experiment: Cytotoxicity against human MDA-MB-231 cells assessed as reduction in cell proliferation at 10 uM measured after 3 days by MTT assay; format: functional, cell-based; settings: time 3.0 day
[15] = tested on: NCI-N87; experiment: Cytotoxicity against human NCI-N87 cells assessed as reduction in cell proliferation at 10 uM measured after 3 days by MTT assay; format: functional, cell-based; settings: time 3.0 day
[16] = tested on: DU-145; experiment: Cytotoxicity against human DU-145 cells assessed as reduction in cell proliferation at 10 uM measured after 3 days by MTT assay; format: functional, cell-based; settings: time 3.0 day
[17] = Induction of mitotic arrest in human RPE cells over expressing H2B-GFP-fused MYC assessed as minimum effective concentration for polyploidy measured after 24 hrs by fluorescence microscopy; format: functional; settings: read-out: MEC
[18] = Induction of mitotic arrest in human RPE cells over expressing H2B-GFP-fused MYC assessed as polyploidy cells in the interphase cell population at 40 uM measured after 72 hrs by fluorescence microscopy relative to control; format: functional
[19] = target: Aurora kinase B (Homo sapiens) (UniProt Q96GD4); experiment: Inhibition of AURKB in human RPE cells over expressing H2B-GFP-fused MYC assessed as reduction in phosphorylation at Ser10 residues at 200 nM using histone H3 as substrate measured after 6 hrs by immunofluorescence assay; format: cell-based
[20] = target: T1, Aurora kinase A (Homo sapiens) (UniProt O14965); experiment: Inhibition of AURKA in human RPE cells over expressing H2B-GFP-fused MYC assessed as reduction in autophosphorylation at Thr288 residues at 0.64 uM measured after 6 hrs by immunofluorescence assay; format: cell-based
T1 sequence (whole entry): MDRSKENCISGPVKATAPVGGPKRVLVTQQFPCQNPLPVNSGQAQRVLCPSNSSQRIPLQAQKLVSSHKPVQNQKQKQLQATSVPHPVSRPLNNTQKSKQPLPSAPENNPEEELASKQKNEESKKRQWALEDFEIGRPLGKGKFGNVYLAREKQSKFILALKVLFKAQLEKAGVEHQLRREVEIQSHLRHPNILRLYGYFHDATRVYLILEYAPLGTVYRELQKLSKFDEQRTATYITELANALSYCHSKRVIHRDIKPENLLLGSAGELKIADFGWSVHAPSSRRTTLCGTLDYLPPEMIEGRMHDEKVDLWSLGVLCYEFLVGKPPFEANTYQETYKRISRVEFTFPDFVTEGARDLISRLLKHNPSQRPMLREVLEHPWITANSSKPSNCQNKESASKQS

Sequence of Aurora kinase B (Homo sapiens) (Q96GD4 whole entry, the tested form may be a part): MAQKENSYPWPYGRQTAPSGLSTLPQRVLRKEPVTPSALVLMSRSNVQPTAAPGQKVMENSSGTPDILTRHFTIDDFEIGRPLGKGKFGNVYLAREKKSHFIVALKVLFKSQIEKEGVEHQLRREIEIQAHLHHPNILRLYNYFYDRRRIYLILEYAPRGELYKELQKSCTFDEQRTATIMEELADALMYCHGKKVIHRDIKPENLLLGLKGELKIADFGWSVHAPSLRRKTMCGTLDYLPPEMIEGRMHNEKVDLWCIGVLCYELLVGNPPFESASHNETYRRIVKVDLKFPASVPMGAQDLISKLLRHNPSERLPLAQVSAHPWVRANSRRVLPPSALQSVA

Structure (SMILES)	Activity [1]	Activity [2]	Activity [3]	Activity [4]	Activity [5]	Activity [6]	Activity [7]	Activity [8]	Activity [9]	Activity [10]	minimal effective concentration [11]	other results
Cc1cc(Nc2cc(N3CCN(C)CC3)nc(Sc3ccc(NC(=O)C4CC4)cc3)n2)n[nH]1	Active	Active	Active	Active	Active	Active	Active	Active	Active	–	–	–
COc1ccc2c(c1)[C@]1(C[C@H]1c1ccc3c(/C=C/c4ccc(CN5C[C@@H](C)O[C@@H](C)C5)cc4)n[nH]c3c1)C(=O)N2	Active	Active	Active	Active	Active	Active	Active	Active	Active	–	–	–
COC(=O)C1=C(O)c2ccccc2N(Cc2ccc(C(C)C)cc2)C(=O)C1	–	–	–	–	–	–	–	–	–	70%	20 µM	–
COC(=O)C1=C(O)c2ccccc2N(Cc2ccc(C)c(C)c2)C(=O)C1	–	–	–	–	–	–	–	–	–	40%	20 µM	–
COC(=O)C1=C(O)c2ccccc2N(Cc2ccc(F)cc2)C(=O)C1	–	–	–	–	–	–	–	–	–	50%	40 µM	–
COC(=O)C1=C(O)c2ccccc2N(Cc2ccc(OC)cc2)C(=O)C1	Active	Active	Active	Active	Active	Active	Active	Active	Active	80%	0.156 µM	Activity [12]: Active; Activity [13]: Active; Activity [14]: Active; Activity [15]: Active; Activity [16]: Active
COC(=O)C1=C(O)c2ccccc2N(Cc2cccc(OC)c2)C(=O)C1	–	–	–	–	–	–	–	–	–	20%	20 µM	–
COc1cc(Nc2ncc3c(n2)-c2ccc(Cl)cc2C(c2c(F)cccc2OC)=NC3)ccc1C(=O)O	Active	Active	Active	Active	Active	Active	Active	Active	Active	–	–	–
COC(=O)C1=C(O)c2ccccc2N(Cc2ccc(C)c(Cl)c2)C(=O)C1	–	–	–	–	–	–	–	–	–	100%	5 µM	–
COC(=O)C1=C(O)c2ccccc2N(Cc2ccccc2)C(=O)C1	–	–	–	–	–	–	–	–	–	50%	40 µM	–
COC(=O)C1=C(O)c2ccccc2N(Cc2cccc(F)c2)C(=O)C1	–	–	–	–	–	–	–	–	–	40%	40 µM	–
COC(=O)C1=C(O)c2ccccc2N(Cc2ccc(C(C)(C)C)cc2)C(=O)C1	–	–	–	–	–	–	–	–	–	5%	40 µM	–
COC(=O)C1=C(O)c2ccccc2NC(=O)C1	–	–	–	–	–	–	–	–	–	–	–	minimal effective concentration [17]: 40 µM; Activity [18]: 50%
COC(=O)C1=C(O)c2ccccc2N(Cc2ccc(C)cc2C)C(=O)C1	–	–	–	–	–	–	–	–	–	100%	1.25 µM	–
COC(=O)C1=C(O)c2cc(F)ccc2N(Cc2ccc(C)c(F)c2)C(=O)C1	–	–	–	–	–	–	–	–	–	40%	0.078 µM	–
CCN(CCO)CCCOc1ccc2c(Nc3cc(CC(=O)Nc4cccc(F)c4)[nH]n3)ncnc2c1	–	–	–	–	–	–	–	–	–	–	–	inhibition [19]: Active
COC(=O)C1=C(O)c2ccccc2N(Cc2ccc(C#N)cc2)C(=O)C1	–	–	–	–	–	–	–	–	–	10%	40 µM	–
COC(=O)C1=C(O)c2ccccc2N(Cc2ccc(C(F)(F)F)cc2)C(=O)C1	–	–	–	–	–	–	–	–	–	30%	10 µM	–
COC(=O)C1=C(O)c2ccccc2N(Cc2ccc(OC)c(F)c2)C(=O)C1	Active	Active	Active	Active	Active	Active	Active	Active	Active	70%	0.039 µM	inhibition [20]: Active; Activity [12]: Active; Activity [13]: Active; Activity [14]: Active; Activity [15]: Active; Activity [16]: Active
COC(=O)C1=C(O)c2ccccc2N(Cc2ccc(C)cc2)C(=O)C1	–	–	–	–	–	–	–	–	–	10%	0.625 µM	Activity [12]: Active; Activity [13]: Active; Activity [14]: Active; Activity [15]: Active; Activity [16]: Active
CC[C@@H]1C(=O)N(C)c2cnc(Nc3ccc(C(=O)NC4CCN(C)CC4)cc3OC)nc2N1C1CCCC1	Active	Active	Active	Active	Active	Active	Active	Active	Active	–	–	–
CCc1ccc(CN2C(=O)CC(C(=O)OC)=C(O)c3ccccc32)cc1	Active	Active	Active	Active	Active	Active	Active	Active	Active	10%	0.078 µM	Activity [12]: Active; Activity [14]: Active; Activity [15]: Active; Activity [16]: Active
COC(=O)C1=C(O)c2cc(OC)c(OC)cc2N(Cc2ccc(C)c(F)c2)C(=O)C1	–	–	–	–	–	–	–	–	–	90%	0.312 µM	–
COC(=O)C1=C(O)c2ccccc2N(Cc2ccc(C)c(F)c2)C(=O)C1	Active	Active	Active	Active	Active	Active	Active	Active	Active	30%	0.019 µM	Activity [12]: Active; Activity [13]: Active; Activity [14]: Active; Activity [15]: Active; Activity [16]: Active
COC(=O)C1=C(O)c2scc(C)c2N(Cc2ccc(C)c(F)c2)C(=O)C1	–	–	–	–	–	–	–	–	–	100%	0.312 µM	Activity [12]: Active; Activity [13]: Active; Activity [14]: Active; Activity [15]: Active; Activity [16]: Active
COC(=O)C1=C(O)c2ccccc2N(Cc2cccc(C)c2)C(=O)C1	–	–	–	–	–	–	–	–	–	10%	40 µM	–
Cc1csc(-c2nnc(Nc3ccc(Oc4ncccc4-c4ccnc(N)n4)cc3)c3ccccc23)c1	Active	Active	Active	Active	Active	Active	Active	Active	Active	–	–	–
